Results taken from US12171230B2, “Herbicidal compositions” (Bayer Aktiengesellschaft, priority 2018, dated 2024).
Where “and” joins values, the source holds several entries; their conditions need not be identical. Identical values can stand only once.

Key:
Type in all cases: in vivo
[1] = tested on: Ephilobium hirsutum; assay: Post-emergence herbicidal action against Ephilobium hirsutum; conditions: 100 g of a.i./ha
Experimental: (§1) When the observed efficacies exceed the formal sum total of the values of the tests with individual applications, they also exceed the expected value according to Colby, which is calculated using the formula below and is likewise regarded as an indication of synergism (cf. S. R. Colby; in Weeds 15 (1967) p. 20 to 22): E^C=A+B−([…])
(§2) Here: • A=efficacy of the active compound (A) in % at an application rate of a g a.i./ha; • B=efficacy of the active compound (B) in % at an application rate of b g a.i./ha; • E^C=expected value of the effect of the combination (A)+(B) in % at the combined application rate a+b g a.i./ha.
Seeds or rhizome pieces of mono- and dicotyledonous weeds are placed in sandy loam in pots, covered with soil and grown in a greenhouse under good growth conditions (temperature, air humidity, water supply). Three weeks after sowing, the test plants were treated at the three-leaf stage with the compositions according to the invention. The compositions according to the invention formulated as spray powders or as emulsion concentrates were sprayed onto the green plant parts in various dosages with an application rate of 300 to 800 l/ha of water (equivalent). After the test plants have been left to stand in the greenhouse under optimal growth conditions for about 3 to 4 weeks, the action of the preparations is scored visually in comparison to untreated controls. […]

[2] = tested on: Ranunculus repens; assay: Post-emergence herbicidal action against Ranunculus repens; conditions: 100 g of a.i./ha
Experimental: as §1, §2
(§3) Seeds or rhizome pieces of mono- and dicotyledonous weeds are placed in sandy loam in pots, covered with soil and grown in a greenhouse under good growth conditions (temperature, air humidity, water supply). Three weeks after sowing, the test plants were treated at the three-leaf stage with the compositions according to the invention. The compositions according to the invention formulated as spray powders or as emulsion concentrates were sprayed onto the green plant parts in various dosages with an application rate of 300 to 800 l/ha of water (equivalent). […] The compositions according to the invention also have good post-emergence herbicidal activity against a broad spectrum of economically important gramineous and broadleaf weeds.

[3] = tested on: Viola arvensis; assay: Post-emergence herbicidal action against Viola arvensis; conditions: 100 g of a.i./ha
Experimental: as §1, §2, §3

[4] = tested on: Brachiaria platyphylla; assay: Post-emergence herbicidal action against Brachiaria platyphylla
In short: (§4)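 Seeds or rhizome pieces were grown in sandy loam in pots in a greenhouse, and plants were sprayed at the three-leaf stage, three weeks after sowing. Spray powders or emulsion concentrates were applied in various dosages at 300 to 800 l/ha water. Efficacy was scored visually after 3 to 4 weeks against untreated controls.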

[5] = tested on: Pharbitis purpurea; assay: Post-emergence herbicidal action against Pharbitis purpurea; conditions: for Herbicidal action 21 DAT [%] against Pharbitis purpurea: post-emergence
In short: as §4

[6] = tested on: Alopecurus myosuroides; assay: Post-emergence herbicidal action against Alopecurus myosuroides
[7] = tested on: Phalaris minor; assay: Post-emergence herbicidal action against Phalaris minor
[8] = tested on: Veronica hederifolia; assay: Post-emergence herbicidal action against Veronica hederifolia
[9] = tested on: Lolium rigidum (resistant biotype); assay: Post-emergence herbicidal action against Lolium rigidum (resistant biotype)
[10] = tested on: Bromus sterilis; assay: Post-emergence herbicidal action against Bromus sterilis; conditions: 14 DAT; 1 g a.i./ha
[11] = tested on: Phalaris minor; assay: Post-emergence herbicidal action against Phalaris minor; remark: listed apart in the source
[12] = tested on: Lolium rigidum; assay: Post-emergence herbicidal action against Lolium rigidum
[13] = tested on: Viola tricolor; assay: Post-emergence herbicidal action against Viola tricolor
[14] = tested on: Phalaris minor; assay: Post-emergence herbicidal action against Phalaris minor; remark: listed apart in the source
[15] = tested on: Abutilon theophrasti; assay: Post-emergence herbicidal action against Abutilon theophrasti; conditions: 100 g of a.i./ha
[16] = tested on: Viola tricolor; assay: Post-emergence herbicidal action against Viola tricolor; remark: listed apart in the source
[17] = tested on: Ipomoea ssp.; assay: Post-emergence herbicidal action against Ipomoea ssp.; conditions: 45 DAT
[18] = tested on: Malva pusilia; assay: Post-emergence herbicidal action against Malva pusilia; conditions: 42 DAT; 100 g a.i./ha
[19] = tested on: Alopecurus myosuroides; assay: Post-emergence herbicidal action against Alopecurus myosuroides; remark: listed apart in the source
[20] = tested on: Polygonum convolvulus; assay: Post-emergence herbicidal action against Polygonum convolvulus
Description: The following abbreviations are used in the description and the tables that follow: • g of a.i./ha=grams of active substance (active ingredient) (=100% active compound) per hectare; • The sum total of the effects of the individual applications is reported under E^A; • expected values according to Colby are each reported under E^C.
The rating period is reported in days after application (DAT).

[21] = tested on: Abutilon theophrasti; assay: Post-emergence herbicidal action against Abutilon theophrasti; conditions: 21 DAT

For `C=C[C@]1(C(=O)N[C@H]2CO[C@@H](C(=O)OC)C2)CC(c2cc(F)cc(F)c2)=NO1` (relative stereo) [Compound A3, methyl rel-(2R,4R)-4-[[(5S)-3-(3,5-difluorophenyl)-5-vinyl-4H-isoxazole-5-carbonyl]amino]tetrahydrofuran-2-carboxylate], the “Herbicidal action 43 DAT [%] against Ephilobium hirsutum” value [1] was 77%, the “Herbicidal action 43 DAT [%] against Ranunculus repens” value [2] was 82% and the “Herbicidal action 43 DAT [%] against Viola arvensis” value [3] was 50%. The “Herbicidal action 21 DAT [%] against Brachiaria platyphylla” value ([4]; 1.7 g of a.i./ha) was 20%, the “Herbicidal action 21 DAT against Brachiaria platyphylla” value ([4]; 1.7 g of a.i./ha) was 20% and the “Herbicidal action 21 DAT [%] against Brachiaria platyphylla” value ([4]; 1.7 g of a.i./ha, post-emergence, block with (B1.14) Tembotrione) was 20%. The “Herbicidal action 21 DAT [%] against Brachiaria platyphylla” value ([4]; 1.7 g of a.i./ha, post-emergence, block with (B9.10) Saflufenacil) was 20%, the “Herbicidal action 21 DAT [%] against Brachiaria platyphylla” value ([4]; 5 g of a.i./ha) was 80% and the “Herbicidal action 21 DAT against Pharbitis purpurea” value ([5]; 5 g of a.i./ha) was 80%. The “Herbicidal action 21 DAT [%] against Pharbitis purpurea” value ([5]; 5 g of a.i./ha) was 80%, the “Herbicidal action 21 DAT [%] against Pharbitis purpurea” value ([5]; 21 DAT, 5 g of a.i./ha) was 85% and the “Herbicidal action 21 DAT [%] against Pharbitis purpurea” value ([5]; 21 DAT, 15 g of a.i./ha) was 85%. For the same molecule, the “Herbicidal action in [%] 14 DAT against Alopecurus myosuroides” value ([6]; 1 g of a.i./ha) was 15% and 30%, the “Herbicidal action in [%] 28 DAT against Alopecurus myosuroides” value ([6]; 1 g of a.i./ha) was 15% and 10% and the “Herbicidal action in [%] 14 DAT against Alopecurus myosuroides” value ([6]; 1 g of a.i./ha, second 14 DAT block) was 35%. The “Herbicidal action in [%] 14 DAT against Alopecurus myosuroides” value ([6]; 4 g of a.i./ha) was 90% and 75%, the “Herbicidal action in [%] 28 DAT against Alopecurus myosuroides” value ([6]; 4 g of a.i./ha) was 50% and 60% and the “Herbicidal action in [%] 28 DAT against Alopecurus myosuroides” value ([6]; 16 g of a.i./ha) was 90%. For the same molecule, the “Herbicidal action against Phalaris minor” value ([7]; 14 DAT, 1 g of a.i./ha) was 10%, the “Herbicidal action against Phalaris minor” value ([7]; 14 DAT, 4 g of a.i./ha) was 90% and the “Herbicidal action against Phalaris minor” value ([7]; 14 DAT, 16 g of a.i./ha) was 85%. The “Herbicidal action against Phalaris minor” value ([7]; 28 DAT, 1 g of a.i./ha) was 0%, the “Herbicidal action against Phalaris minor” value ([7]; 28 DAT, 4 g of a.i./ha) was 70% and the “Herbicidal action against Phalaris minor” value ([7]; 28 DAT, 16 g of a.i./ha) was 40%. The “Herbicidal action against Veronica hederifolia” value ([8]; 14 DAT, 1 g of a.i./ha) was 30%, the “Herbicidal action against Veronica hederifolia” value ([8]; 14 DAT, 16 g of a.i./ha) was 40% and the “Herbicidal action against Veronica hederifolia” value ([8]; 28 DAT, 16 g of a.i./ha) was 50%. The “Herbicidal action in [%] 14 DAT against Lolium rigidum (resistant biotype)” value ([9]; 1 g of a.i./ha) was 15% and 30%, the “Herbicidal action in [%] 28 DAT against Lolium rigidum (resistant biotype)” value ([9]; 1 g of a.i./ha) was 0% and the “Herbicidal action in [%] 14 DAT against Lolium rigidum (resistant biotype)” value ([9]; 4 g of a.i./ha) was 40% and 60%. The Herbicidal action [10] was 30%, the “Herbicidal action in [%] 14 DAT against Phalaris minor” value ([11]; 1 g of a.i./ha) was 10% and 20% and the “Herbicidal action in [%] 28 DAT against Phalaris minor” value ([11]; 1 g of a.i./ha) was 0% and 10%. The “Herbicidal action in [%] 14 DAT against Phalaris minor” value ([11]; 4 g of a.i./ha) was 90% and 85%, the “Herbicidal action in [%] 28 DAT against Phalaris minor” value ([11]; 4 g of a.i./ha) was 70% and the “Herbicidal action in [%] 14 DAT against Phalaris minor” value ([11]; 16 g of a.i./ha) was 85%. It also gave a Herbicidal action ([12]; 14 DAT, 1 g a.i./ha) of 40%, a Herbicidal action ([12]; 28 DAT, 1 g a.i./ha) of 10% and a Herbicidal action ([12]; 28 DAT, 4 g a.i./ha) of 70%. For the same molecule, the “Herbicidal action in [%] 14 DAT against Viola tricolor” value ([13]; 1 g of a.i./ha) was 50%, the “Herbicidal action in [%] 28 DAT against Viola tricolor” value ([13]; 1 g of a.i./ha) was 15% and the “Herbicidal action in [%] 28 DAT against Viola tricolor” value ([13]; 4 g of a.i./ha) was 30%. It also gave a Herbicidal action ([14]; 14 DAT, 1 g a.i./ha) of 20%, a Herbicidal action ([14]; 14 DAT, 4 g a.i./ha) of 85% and a Herbicidal action ([14]; 14 DAT, 16 g a.i./ha) of 85%. It also gave a Herbicidal action ([14]; 28 DAT, 1 g a.i./ha) of 10%, a Herbicidal action ([14]; 28 DAT, 4 g a.i./ha) of 85% and a Herbicidal action ([14]; 28 DAT, 16 g a.i./ha) of 85%. For the same molecule, the “Herbicidal action 37 DAT [%] against Abutilon theophrasti” value [15] was 75%, the “Herbicidal action against Viola tricolor” value ([16]; 14 DAT, 1 g of a.i./ha) was 50% and the “Herbicidal action against Viola tricolor” value ([16]; 14 DAT, 16 g of a.i./ha) was 85%. For the same molecule, the “Herbicidal action against Viola tricolor” value ([16]; 28 DAT, 1 g of a.i./ha) was 15%, the “Herbicidal action against Viola tricolor” value ([16]; 28 DAT, 16 g of a.i./ha) was 20% and the Herbicidal action ([17]; 50 g a.i./ha) was 40%. It also gave a Herbicidal action ([17]; 100 g a.i./ha) of 50%, a Herbicidal action [18] of 50% and a Herbicidal action ([19]; 14 DAT, 1 g a.i./ha) of 30%. The Herbicidal action ([19]; 14 DAT, 4 g a.i./ha) was 75%, the Herbicidal action ([19]; 28 DAT, 1 g a.i./ha) was 10% and the Herbicidal action ([19]; 28 DAT, 4 g a.i./ha) was 60%.
With `O=C(Nc1ccc(F)cc1F)c1cccnc1Oc1cccc(C(F)(F)F)c1` [(B2.18) Diflufenican] the “Herbicidal action 21 DAT against Polygonum convolvulus” value ([20]; g of a.i./ha: 90, 30, 45, 45 + 90, 45 + 30, 30 g of a.i./ha) was 10%, the “Herbicidal action 21 DAT against Polygonum convolvulus” value ([20]; g of a.i./ha: 90, 30, 45, 45 + 90, 45 + 30, 90 g of a.i./ha) was 20% and the “Herbicidal action against Abutilon theophrasti” value ([21]; 30 g of a.i./ha) was 10%. For the same molecule, the “Herbicidal action against Abutilon theophrasti” value ([21]; 90 g of a.i./ha) was 10% and the “Herbicidal action against Abutilon theophrasti” value ([21]; 270 g of a.i./ha) was 25%.
